Patent US20240228506A1, “RIPK1 INHIBITORS AND METHODS OF USE” (Merck Sharp & Dohme LLC, priority 2021, published 2024)

target: T1, GST-RIPK1 (recombinant GST-RIPK1 kinase domain (residues 1-327)) (Homo sapiens, UniProt Q13546); assay: RIPK1-ADP-Glo enzymatic assay; format: biochemical; conditions: 25 nM GST-RIPK1, 300 μM ATP, 3 μM dephosphorylated-MBP; 30 minutes pre-incubation, 150 minutes reaction; ten-point titration
T1 construct: recombinant GST-RIPK1 kinase domain (residues 1-327) enzyme; made in house; host or cells: baculovirus-transfected Sf21 insect cells
T1 sequence (Q13546 1-327): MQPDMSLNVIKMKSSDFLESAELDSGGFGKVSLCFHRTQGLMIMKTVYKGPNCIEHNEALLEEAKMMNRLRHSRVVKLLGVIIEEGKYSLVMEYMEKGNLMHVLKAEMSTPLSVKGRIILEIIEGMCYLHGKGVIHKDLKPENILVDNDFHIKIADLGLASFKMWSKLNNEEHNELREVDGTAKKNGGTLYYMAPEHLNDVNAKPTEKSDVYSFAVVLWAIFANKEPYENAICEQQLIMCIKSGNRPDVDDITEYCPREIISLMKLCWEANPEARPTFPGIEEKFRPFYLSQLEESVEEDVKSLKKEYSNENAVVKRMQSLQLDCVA
How it was run: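 Ten-point 1:3 titrations from 100000 nM, 1% DMSO, were preincubated 30 min with 25 nM GST-RIPK1 (1-327) before starting with 300 μM ATP plus 3 μM dephosphorylated MBP; 150 min reaction. ADP-Glo luminescence measured ATP-to-ADP conversion; EC50 by four-parameter sigmoidal regression.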

Row | IC50 | Structure (SMILES)
1 | 33 nM | Cc1ncc(C#Cc2cncc3c2O[C@H]2C[C@@H]3N(C(=O)C(C)(C)C(F)F)C2)cn1 [Compound 2-76, 3,3-difluoro-2,2-dimethyl-1-((2S,5S)-9-((2-methylpyrimidin-5-yl)ethynyl)-2,3-dihydro-2,5-methanopyrido[3,4-f][1,4]oxazepin-4(5H)-yl)propan-1-one]
2 | 49 nM | CC(C)(C(=O)N1C[C@@H]2C[C@H]1c1cncc(C#Cc3cnc(C(F)(F)F)nc3)c1O2)C(F)F [Compound 2-77, 3,3-difluoro-2,2-dimethyl-1-((2S,5S)-9-((2-(trifluoromethyl)pyrimidin-5-yl)ethynyl)-2,3-dihydro-2,5-methanopyrido[3,4-f][1,4]oxazepin-4(5H)-yl)propan-1-one]
3 | 19 nM | CC(C)(C(=O)N1C[C@@H]2C[C@H]1c1cncc(C#Cc3cnc(C#N)nc3)c1O2)C(F)F [Compound 2-78, 5-(((2S,5S)-4-(3,3-difluoro-2,2-dimethylpropanoyl)-2,3,4,5-tetrahydro-2,5-methanopyrido[3,4-f][1,4]oxazepin-9-yl)ethynyl)pyrimidine-2-carbonitrile]
4 | 72 nM | CC(C)(C(=O)N1C[C@@H]2C[C@H]1c1cncc(C#Cc3cnc4ncnn4c3)c1O2)C(F)F [Compound 2-79, 1-((2S,5S)-9-([1,2,4]triazolo[1,5-a]pyrimidin-6-ylethynyl)-2,3-dihydro-2,5-methanopyrido[3,4-f][1,4]oxazepin-4(5H)-yl)-3,3-difluoro-2,2-dimethylpropan-1-one]
5 | 24 nM | CC(C)(C(=O)N1C[C@@H]2C[C@H]1c1cncc(C#Cc3cnc(C4CC4)nc3)c1O2)C(F)F [Compound 2-80, 1-((2S,5S)-9-((2-cyclopropylpyrimidin-5-yl)ethynyl)-2,3-dihydro-2,5-methanopyrido[3,4-f][1,4]oxazepin-4(5H)-yl)-3,3-difluoro-2,2-dimethylpropan-1-one]
6 | 22 nM | CC(C)(C(=O)N1C[C@@H]2C[C@H]1c1cncc(C#Cc3cnc4c(Cl)cnn4c3)c1O2)C(F)F [Compound 2-81, 1-((2S,5S)-9-((3-chloropyrazolo[1,5-a]pyrimidin-6-yl)ethynyl)-2,3-dihydro-2,5-methanopyrido[3,4-f][1,4]oxazepin-4(5H)-yl)-3,3-difluoro-2,2-dimethylpropan-1-one]
7 | 66 nM | Cc1ncccc1C#Cc1cncc2c1O[C@H]1C[C@@H]2N(C(=O)C(C)(C)C(F)F)C1 [Compound 2-82, 3,3-difluoro-2,2-dimethyl-1-((2S,5S)-9-((2-methylpyridin-3-yl)ethynyl)-2,3-dihydro-2,5-methanopyrido[3,4-f][1,4]oxazepin-4(5H)-yl)propan-1-one]
8 | 24 nM | CC(C)(C(=O)N1C[C@@H]2C[C@H]1c1cncc(C#Cc3ccc(C4CC4)nc3)c1O2)C(F)F [Compound 2-83, 1-((2S,5S)-9-((6-cyclopropylpyridin-3-yl)ethynyl)-2,3-dihydro-2,5-methanopyrido[3,4-f][1,4]oxazepin-4(5H)-yl)-3,3-difluoro-2,2-dimethylpropan-1-one]
9 | 26 nM | CC(C)(C(=O)N1C[C@@H]2C[C@H]1c1cncc(C#Cc3ccc(C(F)F)nc3)c1O2)C(F)F [Compound 2-84, 1-((2S,5S)-9-((6-(difluoromethyl)pyridin-3-yl)ethynyl)-2,3-dihydro-2,5-methanopyrido[3,4-f][1,4]oxazepin-4(5H)-yl)-3,3-difluoro-2,2-dimethylpropan-1-one]
10 | 38 nM | CC(C)(C(=O)N1C[C@@H]2C[C@H]1c1cncc(C#Cc3cncc(C#N)c3)c1O2)C(F)F [Compound 2-85, 5-(((2S,5S)-4-(3,3-difluoro-2,2-dimethylpropanoyl)-2,3,4,5-tetrahydro-2,5-methanopyrido[3,4-f][1,4]oxazepin-9-yl)ethynyl)nicotinonitrile]
11 | 31 nM | CC(C)(C(=O)N1C[C@@H]2C[C@H]1c1cncc(C#Cc3ccc(C(F)(F)F)nc3)c1O2)C(F)F [Compound 2-86, 3,3-difluoro-2,2-dimethyl-1-((2S,5S)-9-((6-(trifluoromethyl)pyridin-3-yl)ethynyl)-2,3-dihydro-2,5-methanopyrido[3,4-f][1,4]oxazepin-4(5H)-yl)propan-1-one]
12 | 32 nM | CC(C)(C(=O)N1C[C@@H]2C[C@H]1c1cncc(C#Cc3ccc(C#N)nc3)c1O2)C(F)F [Compound 2-87, 5-(((2S,5S)-4-(3,3-difluoro-2,2-dimethylpropanoyl)-2,3,4,5-tetrahydro-2,5-methanopyrido[3,4-f][1,4]oxazepin-9-yl)ethynyl)picolinonitrile]
13 | 35 nM | CC(C)(C(=O)N1C[C@@H]2C[C@H]1c1cncc(C#Cc3ccc(OC(F)F)nc3)c1O2)C(F)F [Compound 2-88, 1-((2S,5S)-9-((6-(difluoromethoxy)pyridin-3-yl)ethynyl)-2,3-dihydro-2,5-methanopyrido[3,4-f][1,4]oxazepin-4(5H)-yl)-3,3-difluoro-2,2-dimethylpropan-1-one]
14 | 34 nM | CC(C)(C(=O)N1C[C@@H]2C[C@H]1c1cncc(C#Cc3cncc(C(F)(F)F)c3)c1O2)C(F)F [Compound 2-89, 3,3-difluoro-2,2-dimethyl-1-((2S,5S)-9-((5-(trifluoromethyl)pyridin-3-yl)ethynyl)-2,3-dihydro-2,5-methanopyrido[3,4-f][1,4]oxazepin-4(5H)-yl)propan-1-one]
15 | 28 nM | CC(C)(C(=O)N1C[C@@H]2C[C@H]1c1cncc(C#Cc3cncc(Cl)c3)c1O2)C(F)F [Compound 2-90, 1-((2S,5S)-9-((5-chloropyridin-3-yl)ethynyl)-2,3-dihydro-2,5-methanopyrido[3,4-f][1,4]oxazepin-4(5H)-yl)-3,3-difluoro-2,2-dimethylpropan-1-one]
16 | 65 nM | Cc1ccc(C#Cc2cncc3c2O[C@H]2C[C@@H]3N(C(=O)C(C)(C)C(F)F)C2)c(C)n1 [Compound 2-91, 1-((2S,5S)-9-((2,6-dimethylpyridin-3-yl)ethynyl)-2,3-dihydro-2,5-methanopyrido[3,4-f][1,4]oxazepin-4(5H)-yl)-3,3-difluoro-2,2-dimethylpropan-1-one]
17 | 19 nM | COc1ccc(C#Cc2cncc3c2O[C@H]2C[C@@H]3N(C(=O)C(C)(C)C(F)F)C2)cn1 [Compound 2-92, 3,3-difluoro-1-((2S,5S)-9-((6-methoxypyridin-3-yl)ethynyl)-2,3-dihydro-2,5-methanopyrido[3,4-f][1,4]oxazepin-4(5H)-yl)-2,2-dimethylpropan-1-one]
18 | 58 nM | CC(C)(C(=O)N1C[C@@H]2C[C@H]1c1cncc(C#Cc3cnc4cncn4c3)c1O2)C(F)F [Compound 2-93, 3,3-difluoro-1-((2S,5S)-9-(imidazo[1,5-a]pyrimidin-3-ylethynyl)-2,3-dihydro-2,5-methanopyrido[3,4-f][1,4]oxazepin-4(5H)-yl)-2,2-dimethylpropan-1-one]
19 | 49 nM | COc1ncc(C#Cc2cncc3c2O[C@H]2C[C@@H]3N(C(=O)C(C)(C)C(F)F)C2)c(OC)n1 [Compound 2-94, 1-((2S,5S)-9-((2,4-dimethoxypyrimidin-5-yl)ethynyl)-2,3-dihydro-2,5-methanopyrido[3,4-f][1,4]oxazepin-4(5H)-yl)-3,3-difluoro-2,2-dimethylpropan-1-one]
20 | 36 nM | Cc1ncc(C#Cc2cncc3c2O[C@H]2C[C@@H]3N(C(=O)C(C)(C)C(F)F)C2)c(C)n1 [Compound 2-95, 1-((2S,5S)-9-((2,4-dimethylpyrimidin-5-yl)ethynyl)-2,3-dihydro-2,5-methanopyrido[3,4-f][1,4]oxazepin-4(5H)-yl)-3,3-difluoro-2,2-dimethylpropan-1-one]
21 | 48 nM | O=C(N1C[C@@H]2C[C@H]1c1cncc(C#Cc3cncc(F)c3)c1O2)C12CCC(C(F)(F)F)(CC1)C2 [Compound 2-96, ((2S,5S)-9-((5-Fluoropyridin-3-yl)ethynyl)-2,3-dihydro-2,5-methanopyrido[3,4-f][1,4]oxazepin-4(5H)-yl)(4-(trifluoromethyl)bicyclo[2.2.1]heptan-1-yl)methanone]
22 | 18 nM | O=C(N1C[C@@H]2C[C@H]1c1cncc(C#Cc3ccccc3)c1O2)C12CCC(F)(CC1)C2 [Compound 2-97, (4-Fluorobicyclo[2.2.1]heptan-1-yl)((2S,5S)-9-(phenylethynyl)-2,3-dihydro-2,5-methanopyrido[3,4-f][1,4]oxazepin-4(5H)-yl)methanone]
23 | 13 nM | COc1cccc(C#Cc2cncc3c2O[C@H]2C[C@@H]3N(C(=O)C34CCC(F)(CC3)C4)C2)c1 [Compound 2-98, (4-fluorobicyclo[2.2.1]heptan-1-yl)((2S,5S)-9-((3-methoxyphenyl)ethynyl)-2,3-dihydro-2,5-methanopyrido[3,4-f][1,4]oxazepin-4(5H)-yl)methanone]
24 | 10 nM | N#CCc1cccc(C#Cc2cncc3c2O[C@H]2C[C@@H]3N(C(=O)C34CCC(F)(CC3)C4)C2)c1 [Compound 2-99, 2-(3-(((2S,5S)-4-(4-fluorobicyclo[2.2.1]heptane-1-carbonyl)-2,3,4,5-tetrahydro-2,5-methanopyrido[3,4-f][1,4]oxazepin-9-yl)ethynyl)phenyl) acetonitrile]
25 | 12 nM | N#Cc1cccc(C#Cc2cncc3c2O[C@H]2C[C@@H]3N(C(=O)C34CCC(F)(CC3)C4)C2)c1 [Compound 2-100, 3-(((2S,5S)-4-(4-fluorobicyclo[2.2.1]heptane-1-carbonyl)-2,3,4,5-tetrahydro-2,5-methanopyrido[3,4-f][1,4]oxazepin-9-yl)ethynyl)benzonitrile]
